Results taken from PubChem BioAssay AID330 (DTP/NCI, 2004).
“And” between values parts separate entries of the source, which are not always exact repeats. Equal values may be shown once. Toxic doses and inconclusive results are not listed.

Test system: P388 leukemia ip, CD2F1 mice, survival T/C
Assay: NCI In Vivo Anticancer Drug Screen. Data for tumor model P388 Leukemia (intraperitoneal) in CD2F1 (CDF1) mice
Conditions: endpoint: median survival time, higher = longer survival
Method in brief: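 Mice carrying the transplanted tumor received test compound or vehicle. Survival was recorded in each group, and the value is the treated-group measurement divided by that of the vehicle-treated control group.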

[1] = dose: 100.0 mg/kg/injection, schedule: Q01DX009 (ip), vehicle: saline with Tween-80
[2] = dose: 200.0 mg/kg/injection, schedule: Q01DX009 (ip), vehicle: saline with Tween-80
[3] = dose: 50.0 mg/kg/injection, schedule: Q01DX009 (ip), vehicle: other
[4] = dose: 60.0 mg/kg/injection, schedule: Q01DX005 (ip), vehicle: Klucel (hydroxypropylcellulose) (HPC)
[5] = dose: 120.0 mg/kg/injection, schedule: Q01DX005 (ip), vehicle: Klucel (hydroxypropylcellulose) (HPC)
[6] = dose: 240.0 mg/kg/injection, schedule: Q01DX005 (ip), vehicle: Klucel (hydroxypropylcellulose) (HPC)
[7] = dose: 50.0 mg/kg/injection, schedule: Q01DX005 (ip), vehicle: saline
[8] = dose: 100.0 mg/kg/injection, schedule: Q01DX005 (ip), vehicle: saline
[9] = dose: 50.0 mg/kg/injection, schedule: Q01DX005 (ip), vehicle: saline with Tween-80
[10] = dose: 100.0 mg/kg/injection, schedule: Q01DX005 (ip), vehicle: saline with Tween-80
[11] = dose: 200.0 mg/kg/injection, schedule: Q01DX005 (ip), vehicle: saline with Tween-80
[12] = dose: 100.0 mg/kg/injection, schedule: Q01DX009 (ip), vehicle: other
[13] = dose: 200.0 mg/kg/injection, schedule: Q01DX009 (ip), vehicle: other
[14] = dose: 6.25 mg/kg/injection, schedule: Q01DX009 (ip), vehicle: Klucel (hydroxypropylcellulose) (HPC)
[15] = dose: 12.5 mg/kg/injection, schedule: Q01DX009 (ip), vehicle: Klucel (hydroxypropylcellulose) (HPC)
[16] = dose: 25.0 mg/kg/injection, schedule: Q01DX009 (ip), vehicle: Klucel (hydroxypropylcellulose) (HPC)

Structure (SMILES): COc1cccc2c1C(=O)c1c(O)c3c(c(O)c1C2=O)C[C@@](O)(C(C)O)C[C@@H]3OC1CC(N2CCCCC2)C(O)C(C)O1 (stereo partly drawn)
- T/C (dose: 2.5 mg/kg/injection, schedule: Q04DX003 (ip), vehicle: water): 120 % of control
- T/C (dose: 5.0 mg/kg/injection, schedule: Q04DX003 (ip), vehicle: water): 162 % of control
- T/C (dose: 10.0 mg/kg/injection, schedule: Q04DX003 (ip), vehicle: water): 118 % of control
- T/C (dose: 20.0 mg/kg/injection, schedule: Q04DX003 (ip), vehicle: water): 110 % of control
- T/C (dose: 40.0 mg/kg/injection, schedule: Q04DX003 (ip), vehicle: water): 96 % of control

Structure (SMILES): COc1cc(CCN=Cc2cc(Cl)cc(Cl)c2O)c([N+](=O)[O-])cc1OC
- T/C (dose: 50.0 mg/kg/injection, schedule: Q01DX005 (ip), vehicle: Klucel (hydroxypropylcellulose) (HPC)): 93 % of control
- T/C (dose: 100.0 mg/kg/injection, schedule: Q01DX005 (ip), vehicle: Klucel (hydroxypropylcellulose) (HPC)): 102 % of control
- T/C (dose: 200.0 mg/kg/injection, schedule: Q01DX005 (ip), vehicle: Klucel (hydroxypropylcellulose) (HPC)): 111 % of control

Structure (SMILES): COC1/C=C/OC2(C)Oc3c(C)c(O)c4c(O)c(c(/C=N/N5CC(C)N(C(=O)c6ccccc6)C(C)C5)c(O)c4c3C2=O)NC(=O)C(C)=C/C=C/C(C)C(O)C(C)C(O)C(C)C(OC(C)=O)C1C (stereo not drawn)
- T/C (dose: 12.5 mg/kg/injection, schedule: Q01DX009 (ip), vehicle: saline with Tween-80): 124 % of control
- T/C (dose: 25.0 mg/kg/injection, schedule: Q01DX009 (ip), vehicle: saline with Tween-80): 124 % of control
- T/C (dose: 50.0 mg/kg/injection, schedule: Q01DX009 (ip), vehicle: saline with Tween-80): 118 % of control
- T/C [1]: 116 % of control
- T/C [2]: 109 % of control

Structure (SMILES): COc1cc(CCl)c(I)c(OC)c1OC
- T/C (dose: 100.0 mg/kg/injection, schedule: Q01DX001 (ip), vehicle: Klucel (hydroxypropylcellulose) (HPC)): 103 % of control
- T/C (dose: 200.0 mg/kg/injection, schedule: Q01DX001 (ip), vehicle: Klucel (hydroxypropylcellulose) (HPC)): 107 % of control
- T/C (dose: 400.0 mg/kg/injection, schedule: Q01DX001 (ip), vehicle: Klucel (hydroxypropylcellulose) (HPC)): 102 % of control

Structure (SMILES): CN(C)C1CC(C)(O)Cc2cc3c(c(O)c21)C(=O)c1c(O)cc2c(c1C3=O)OC1OC2(C)C(O)C(N(C)C)C1O (stereo not drawn)
- T/C (dose: 3.12 mg/kg/injection, schedule: Q01DX009 (ip), vehicle: other): 103 % of control
- T/C (dose: 6.25 mg/kg/injection, schedule: Q01DX009 (ip), vehicle: other): 120 % of control
- T/C [3]: 153 % of control

Structure (SMILES): CCOc1ccc2nc3cc(N)ccc3c(N)c2c1
- T/C (dose: 44.0 mg/kg/injection, schedule: Q04DX003 (ip), vehicle: saline): 118 % of control
- T/C (dose: 66.0 mg/kg/injection, schedule: Q04DX003 (ip), vehicle: saline): 118 % of control
- T/C (dose: 100.0 mg/kg/injection, schedule: Q04DX003 (ip), vehicle: saline): 118 % of control
- T/C (dose: 150.0 mg/kg/injection, schedule: Q04DX003 (ip), vehicle: saline): 118 % of control

Structure (SMILES): COc1ccc(Cl)c2c(=O)c3ccc4c(c3[nH]c12)C(=O)c1ccccc1C4=O
- T/C [4]: 96 % of control
- T/C [5]: 91 % of control
- T/C [6]: 86 % of control

Structure (SMILES): CCCCCNCC(=O)O
- T/C [7]: 91 % of control
- T/C [8]: 96 % of control

Structure (SMILES): CCCCC(C(=O)OCC)/C(C)=N\NC(N)=S (stereo not drawn)
- T/C [4]: 100 % of control
- T/C [5]: 99 % of control
- T/C [6]: 98 % of control

Structure (SMILES): Nc1cccc(S(=O)(=O)N/N=C/C(=O)O)c1
- T/C (dose: 12.5 mg/kg/injection, schedule: Q01DX009 (ip), vehicle: water): 111 % of control
- T/C (dose: 25.0 mg/kg/injection, schedule: Q01DX009 (ip), vehicle: water): 116 % of control
- T/C (dose: 50.0 mg/kg/injection, schedule: Q01DX009 (ip), vehicle: water): 119 % of control
- T/C (dose: 100.0 mg/kg/injection, schedule: Q01DX009 (ip), vehicle: water): 117 % of control

Structure (SMILES): COc1cc2c(cc1C/C=C/c1ccccc1)OCO2
- T/C [9]: 105 % of control
- T/C [10]: 109 % of control
- T/C [11]: 112 % of control

Structure (SMILES): O=C(/C=C/C(=O)OCC(Cl)(Cl)Cl)OCC(Cl)(Cl)Cl
- T/C [1]: 100 % of control
- T/C [2]: 114 % of control
- T/C (dose: 400.0 mg/kg/injection, schedule: Q01DX009 (ip), vehicle: saline with Tween-80): 106 % of control

Structure (SMILES): O=c1cccc(C2CC(CO)C3CCCCN3C2)[nH]1 (stereo not drawn)
- T/C (dose: 1.1 mg/kg/injection, schedule: Q01DX009 (ip), vehicle: distilled water + Tween-80 + alcohol): 86 % of control
- T/C (dose: 1.5 mg/kg/injection, schedule: Q01DX009 (ip), vehicle: acid diluted with CMC): 96 % of control
- T/C (dose: 2.2 mg/kg/injection, schedule: Q01DX009 (ip), vehicle: acid diluted with CMC): 99 % of control
- T/C (dose: 2.2 mg/kg/injection, schedule: Q01DX009 (ip), vehicle: distilled water + Tween-80 + alcohol): 93 % of control
- T/C (dose: 4.5 mg/kg/injection, schedule: Q01DX009 (ip), vehicle: acid diluted with CMC): 96 % of control
- T/C (dose: 4.5 mg/kg/injection, schedule: Q01DX009 (ip), vehicle: distilled water + Tween-80 + alcohol): 93 % of control
- T/C (dose: 9.0 mg/kg/injection, schedule: Q01DX009 (ip), vehicle: acid diluted with CMC): 99 % of control and 93 % of control
- T/C (dose: 9.0 mg/kg/injection, schedule: Q01DX009 (ip), vehicle: distilled water + Tween-80 + alcohol): 103 % of control
- T/C (dose: 18.0 mg/kg/injection, schedule: Q01DX009 (ip), vehicle: acid diluted with CMC): 94 % of control

Structure (SMILES): O=C([O-])c1cc(Br)cc(Br)c1[OH2+].O=C([O-])c1cc(Br)cc(Br)c1[OH2+].[Mn+2]
- T/C (dose: 60.0 mg/kg/injection, schedule: Q01DX005 (ip), vehicle: saline with Tween-80): 109 % of control
- T/C (dose: 120.0 mg/kg/injection, schedule: Q01DX005 (ip), vehicle: saline with Tween-80): 115 % of control

Structure (SMILES): CCC(C)N(CCNc1cc(OC)cc2cccnc12)CCC(C)C (stereo not drawn)
- T/C [7]: 100 % of control
- T/C [8]: 97 % of control

Structure (SMILES): CCOC(=O)/C=C(\C)NC(C)=NC(C)(C)C
- T/C (dose: 50.0 mg/kg/injection, schedule: Q01DX009 (ip), vehicle: saline): 93 % of control
- T/C (dose: 100.0 mg/kg/injection, schedule: Q01DX009 (ip), vehicle: saline): 89 % of control

Structure (SMILES): Cc1ccc(S(=O)(=O)N/N=C/c2ccc(C(=O)O)cc2)cc1
- T/C (dose: 12.5 mg/kg/injection, schedule: Q01DX009 (ip), vehicle: other): 105 % of control
- T/C (dose: 25.0 mg/kg/injection, schedule: Q01DX009 (ip), vehicle: other): 111 % of control
- T/C [3]: 109 % of control
- T/C [12]: 100 % of control
- T/C [13]: 95 % of control
- T/C (dose: 400.0 mg/kg/injection, schedule: Q01DX009 (ip), vehicle: other): 105 % of control

Structure (SMILES): C[n+]1ccccc1/C=C/c1ccc2c(c1)OCO2
- T/C [14]: 102 % of control
- T/C [15]: 98 % of control
- T/C [16]: 110 % of control
- T/C (dose: 50.0 mg/kg/injection, schedule: Q01DX009 (ip), vehicle: Klucel (hydroxypropylcellulose) (HPC)): 114 % of control

Structure (SMILES): O=c1c(O)c(-c2cc(O)c(O)c(O)c2)oc2cc(O)cc(O)c12
- T/C [14]: 105 % of control
- T/C [15]: 112 % of control
- T/C [16]: 124 % of control
- T/C [12]: 89 % of control
- T/C [13]: 98 % of control

Structure (SMILES): COc1cc(OCc2ccc(OCc3ccccc3)cc2)cc(OC)c1OC
- T/C [9]: 93 % of control
- T/C [10]: 105 % of control
- T/C [11]: 95 % of control

Structure (SMILES): OC(Cc1nc2ccccc2s1)(C(F)(F)F)C(F)(F)F
- T/C (dose: 100.0 mg/kg/injection, schedule: Q04DX003 (ip), vehicle: saline with Tween-80): 100 % of control
- T/C (dose: 200.0 mg/kg/injection, schedule: Q04DX003 (ip), vehicle: saline with Tween-80): 95 % of control
- T/C (dose: 400.0 mg/kg/injection, schedule: Q04DX003 (ip), vehicle: saline with Tween-80): 95 % of control

Structure (SMILES): CC(O)c1nc2ncc(Br)cc2[nH]1 (stereo not drawn)
- T/C (dose: 100.0 mg/kg/injection, schedule: Q01DX001 (ip), vehicle: saline with Tween-80): 93 % of control
- T/C (dose: 200.0 mg/kg/injection, schedule: Q01DX001 (ip), vehicle: saline with Tween-80): 99 % of control
- T/C (dose: 400.0 mg/kg/injection, schedule: Q01DX001 (ip), vehicle: saline with Tween-80): 101 % of control

Structure (SMILES): CCOC(=O)/C(C)=C1\N=C(c2ccccc2)OC(=NC2CCCCC2)N1C1CCCCC1
- T/C [9]: 96 % of control
- T/C [10]: 91 % of control
- T/C [11]: 94 % of control
